Test results from US8304529B2, “Dinucleotide MRNA cap analogs” (Life Technologies Corporation, priority 2006, dated 2012).

Legend:
[1] = tested on: HeLa cells; assay: Luciferase protein expression after transfection of capped luciferase RNA into HeLa cells; type: cell-based; settings: for protein expression compared with mCAP: capped luciferase RNAs with poly(A) tail, different time points after transfection, higher than mCAP
Experimental: Structures were confirmed by ^1H NMR and ^31P NMR. Transcripts produced with T7 RNA polymerases using “anti-reverse” cap analogs (ARCAs) were of the predicted length and indistinguishable in size and homogeneity from those produced with m^7GpppG. Transfection assays were performed by using standard cap analog-capped and ARCA-capped luciferase in in vitro transcribed RNA with HeLa cells.

[2] = tested on: phage RNA polymerase such as T7, T3 or SP6; settings: cited from earlier work

COC1C(COP(=O)([O-])OP(=O)(O)OP(=O)([O-])OCC2OC(n3c[n+](C)c4c(=O)[nH]c(N)nc43)C(O)C2O)OC(n2c[n+](C)c3c(=O)[nH]c(N)nc32)C1O (stereo not drawn) [triple methylated cap, m2^7,3′OG[5′]ppp[5′]m^7G]
protein expression compared with mCAP [1]: 4 fold | translation of capped transcripts in transfected cells ([1]; compared with mCAP, double methylated and ARCA capped luciferase RNAs): more highly translated

C[n+]1cn([C@@H]2O[C@H](COP(=O)(O)OP(=O)(O)OP(=O)(O)OC[C@H]3O[C@@H](n4c[n+](C)c5c(=O)[nH]c(N)nc54)[C@H](O)[C@@H]3O)[C@@H](O)[C@H]2O)c2nc(N)[nH]c(=O)c21 [double methylated cap, m^7 (5′)Gppp(5′)m^7G]
protein expression compared with mCAP [1]: one fold higher

Cn1c[n+]([C@@H]2O[C@H](COP(=O)(O)OP(=O)(O)OP(=O)(O)OC[C@H]3O[C@@H](n4cnc5c(=O)[nH]c(N)nc54)[C@H](O)[C@@H]3O)[C@@H](O)[C@H]2O)c2nc(N)[nH]c(=O)c21 [mCAP, m^7G(5′)ppp(5′)G]
attachment of cap to RNA in the reverse orientation ([2]; NTPs and cap RNA present in comparable concentrations): around 50% | capped RNA in transcription product ([2]; m7GpppG to GTP 4:1, mMESSAGE mMACHINE kit, rest 20% uncapped): 80%

CO[C@H]1[C@@H](O)[C@H](n2c[n+](C)c3c(=O)[nH]c(N)nc32)O[C@@H]1COP(=O)(O)OP(=O)(O)OP(=O)(O)OC[C@H]1O[C@@H](n2cnc3c(=O)[nH]c(N)nc32)[C@H](O)[C@@H]1O [ARCA, m2^7,3′OG[5′]ppp[5′]G]
protein expression compared with mCAP [1]: 3 fold
